Patent publication US20070032443A1, “Therapy for Alzheimer's disease” (priority 2005, published 2007)

System: HEK293 cells
Assay: Viability of HEK293 cells in culture with test compound
Assay type: cell-based, human
Parameters: key: ns: results are not shown due to poor viability of HEK293 cells in culture at the indicated compound concentration
Conditions: 10^−3 dilution of working concentration of Table 4 (D 0.1 millimolar); 6 days of culture

Structure (SMILES): O=P(O)(O)C(O)(Cn1ccnc1)P(=O)(O)O [Compound D, zolendronic acid]
- Viability of HEK293 cells in culture: ns^2
